Measured values from patent US6653331B2, “Targeted drug delivery using sulfonamide derivatives” (Pharmacia & Upjohn Company, priority 1996, dated 2003).
Values belong to the molecule of their own block, whether it stands above or below them.

What was measured:
GST = experiment: Incubation with GST/GSH, cleavage of the sulfonamide bond; assay type: biochemical
Procedure: The protected title compound of formula J-1 is deprotected by GST/GSH under mild conditions. Incubations of 100 μM of this compound and 500 μM GSH with GST (0.5 mg protein /mL) are carried out in 100 mM phosphate buffer, pH 7.4 for 1 hour, at 37° C. in a volume of 0.5 mL. The cleavage of sulfonamide bond is essentially 100% complete after one hour incubation to yield the compound of formula J-2.
(§1) The protected title compound of J-1 is cleaved upon in-vitro incubation with GST/GSH. Enzymatic cleavage of J-1 yields sulfite (SO3^2−), azide (N3^−), and the glutathione-(p-nitrobenzene) conjugate.

rat hepatocytes = experiment: In-vitro incubation with rat hepatocytes; assay type: in vitro ADME
From the text: (§2) The following observations were made during in-vivo (animal models) and in-vitro (cell cultures) studies of the metabolic disposition of the title compound.

human hepatocytes = experiment: In-vitro incubation with human hepatocytes; assay type: in vitro ADME
From the text: as §2

CACO-2 cells = experiment: Metabolism in CACO-2 cell culture; assay type: in vitro ADME, human
Procedure: as §2, §1

[1] = system: Glutathione-S-transferase (GST); experiment: Sulfonamidase activity of commercial GST (isozyme mixture from rat liver); assay type: biochemical; conditions: title compound and GSH as substrates
Procedure: Indeed, most of the activity of 10 ml of rat liver cytosol extract was retained by a GSH-Sepharose column (3.9 ml bed volume), packed and equilibrated in 20 mM Hepes buffer, pH 7.5, while the majority of the cytosolic protein was found in the effluent. After the column was washed extensively with up to 1 mM GSH, it was eluted with 5, 20, and 50 mM GSH. The various fractions were dialyzed against 20 mM Hepes buffer, pH 7.5 and tested for enzymatic activity using the title compound and GSH as substrates; the fractions were then subjected to SDS-PAGE. […] The GSH dependence for activity, the ability to purify the enzyme in a single step by a GSH affinity column, and the Mr˜25,000 pointed to Glutathione-S-transferase (GST). […] The commercial preparation was a mixture of GST isozymes purified from rat liver.

GSTA3-3 = target: T1, GSTA3-3 (Rattus norvegicus, UniProt P04904); experiment: Sulfonamidase activity of reconstituted isozyme GSTA3-3; assay type: biochemical; conditions: A3 homodimeric isoform of rat liver cytosol
T1 construct: The commercial preparation was a mixture of GST isozymes purified from rat liver; purchased; host or cells: rat liver (tissue-derived)
T1 sequence (P04904 2-221 limits assumed): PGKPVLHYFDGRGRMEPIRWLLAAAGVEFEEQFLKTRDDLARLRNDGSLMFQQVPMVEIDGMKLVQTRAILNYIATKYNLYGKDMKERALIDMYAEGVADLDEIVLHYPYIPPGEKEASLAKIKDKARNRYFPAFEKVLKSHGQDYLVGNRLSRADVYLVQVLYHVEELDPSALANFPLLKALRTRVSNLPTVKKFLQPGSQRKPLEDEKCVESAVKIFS
From the text: (§3) As GST exists in a myriad of isoforms, which are active as homodimers and heterodimers, the specific isozyme(s) which was responsible for sulfonamide bond cleavage in the title compound, was investigated. The commercial isozyme mixture was subjected to RP-HPLC on a C18 column (0.45×25 cm). The separation profile of the various isozymes was very similar to that of published work carried out in conditions almost identical to these conditions. […] The HPLC samples were subjected to lyophilization and refolded in an Na-phosphate buffer at pH 6.8. Alternatively, refolding was carried out by subjecting the HPLC samples to a 16 hours dialysis against Na-phosphate, pH 6.8 followed by a 6 hours dialysis against Na-phosphate, pH 7.4; the refolding process was carried out at 4° C. The title compound's sulfonamidase activity of the reconstituted isozymes was proven for the A3 homodimeric isoform (GSTA3-3), and for the M1 isoform (GSTM1-1) of rat liver cytosol. The identity of the A3 isozyme was confirmed by N-terminus amino acid sequence.

GSTM1-1 = target: T2, GSTM1-1 (Rattus norvegicus, UniProt P04905); experiment: Sulfonamidase activity of reconstituted isozyme GSTM1-1; assay type: biochemical; conditions: M1 isoform of rat liver cytosol
T2 construct: The commercial preparation was a mixture of GST isozymes purified from rat liver; purchased; host or cells: rat liver (tissue-derived)
T2 sequence (P04905 2-218 limits assumed): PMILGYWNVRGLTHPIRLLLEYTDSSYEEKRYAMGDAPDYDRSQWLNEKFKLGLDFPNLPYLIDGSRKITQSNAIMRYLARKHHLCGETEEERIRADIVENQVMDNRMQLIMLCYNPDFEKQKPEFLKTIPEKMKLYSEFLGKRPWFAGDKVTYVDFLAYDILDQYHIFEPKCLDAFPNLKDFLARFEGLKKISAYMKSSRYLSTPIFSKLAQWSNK
From the text: as §3

intracellular GSH = conditions: cited from earlier work
[2] = In-vivo metabolic disposition in the rat
From the text: as §2

[3] = In-vivo metabolic disposition in the dog
From the text: as §2

cells = experiment: Cytotoxicity in the presence of GST inhibitors; assay type: cell-based
From the text: Azide, N3^−, is an agent which is known to be cytotoxic to respiring cells. Azide inhibits ATP production via its interference with the cytochrome electron transport chain involved in the terminal stage of oxidative phosphorylation. The agent is markedly cytotoxic to cells relying on aerobic glycolysis/oxidative phosphorylation as a source of energy. […] Metabolism of J-1 within cells by GST releases the potent azide cytotoxin. Thus, covalent coupling of azide with the p-nitrobenzene sulfonyl moiety masks the cytotoxity of azide until cleavage by GST releases the active cytotoxin.

Molecule: CCC[C@@]1(CCc2ccccc2)CC(O)=C([C@H](CC)c2cccc(NS(=O)(=O)c3ccc(C#N)cn3)c2)C(=O)O1 (relative stereo) [J-1, [R-(R*,R*)]-5-Cyano-N-[3-[1-[5,6-dihydro-4-hydroxy-2-oxo-6-(2-phenylethyl)-6-propyl-2H-pyran-3-yl]propyl]phenyl]-2-pyridine-sulfonamide]
cleavage of sulfonamide bond (GST; 100 μM compound, 500 μM GSH, GST 0.5 mg protein/mL, 100 mM phosphate buffer pH 7.4, 1 hour, 37° C.): ~100%
sulfonamide cleavage with release of J-2 (rat hepatocytes): underwent sulfonamide cleavage
sulfonamide cleavage with release of J-2 (human hepatocytes): underwent sulfonamide cleavage
sulfonamide cleavage by CACO-2 cells (CACO-2 cells; CACO-2, human colon adenocarcinoma cell line): significant sulfonamide cleavage
rate of cleavage in CACO-2 cells compared with normal cells (CACO-2 cells; CACO-2 cells versus normal cells): markedly faster
sulfonamidase activity of commercial GST [1]: high sulfonamidase activity
sulfonamidase activity of reconstituted isozyme (GSTA3-3): proven
sulfonamidase activity of reconstituted isozyme (GSTM1-1): proven

Molecule: C=C(CC)C(=O)c1ccc(OCC(=O)O)c(Cl)c1Cl [Ethacrynic Acid]
effect on intracellular GSH (intracellular GSH): deplete intracellular GSH

circulating metabolite of the title compound in the blood [2]: major circulating metabolite
circulating metabolite of the title compound in the blood [3]: major circulating metabolite
Molecule: CCC[C@@]1(CCc2ccccc2)CC(O)=C([C@H](CC)c2cccc(N)c2)C(=O)O1 [J-2]

Molecule: [R-(R*,R*)]-5-Cyano-N-[3-[1-[5,6-dihydro-4-hydroxy-2-oxo-6-(2-phenylethyl)-6-propyl-2H-pyran-3-yl]propyl]phenyl]-2-pyridine-sulfonamide [J-1]
cleavage upon in-vitro incubation with GST/GSH (GST; yields sulfite, azide and the glutathione-(p-nitrobenzene) conjugate): cleaved
metabolism to form the azide in the presence of known GST inhibitors (CACO-2 cells; known GST inhibitors present): blocked
metabolism in CACO-2 cell culture (CACO-2 cells; products compared with enzymatic GST/GSH cleavage): yield the same products
cytotoxicity (cells): relatively non-cytotoxic
